Assay results taken from patent publication US9266904B2, “6-bridged heteroaryldihydropyrimidines for the treatment and prophylaxis of hepatitis B virus infection” (priority 2013, dated 2016).

Each molecule was assayed on HBV replication in HepG2.2.15 cells (assay: Anti-HBV activity in vitro in HepG2.2.15 cells (extracellular HBV DNA by qPCR)). Settings: Anti-HBV activity in HepG2.2.15 cells; read-out: EC50.
Format: cell-based
Excerpt: HepG2.2.15 and HepDE19 are stably-transfected cell lines containing the HBV genome. Both cell lines are derived from the hepatoblastoma cell line Hep G2 (American Type Culture Collection, ATCC® HB-8065™) by the published procedures described in references: M A Selles et al. Proc. Natl. Acad. Sci. USA 1987, 84, 1005-1009 and H Guo et al. Journal of Virology 2007, 81, 12472-12484, respectively. Both cell lines were maintained in Dulbecco's modified Eagle's medium (DMEM)-F12 medium supplemented with 10% fetal bovine serum, 100 U/mL penicillin, 100 μg/mL streptomycin, and 0.5 mg/mL of G418.
While HepG2.2.15 cells constitutively support HBV replication and production of virus particles, HepDE19 cells are inducible by tetracycline. Addition of 1 μg/mL tetracycline in culture medium suppresses HBV replication in HepDE19 cells, whereas switching to tetracycline-free medium resumes this process.
HepG2.2.15 cells were seeded into 96-well plates (3×10^4 cells in 100 μL media per well) and incubated overnight at 37° C. The test compounds were serially half-log diluted in DMSO, then diluted 100 times in culture media. 100 μL diluted compounds were added into the plates to reach 0.5% final concentration of DMSO in every well. Five days after compound treatment, culture supernatant was collected for further analysis.
For quantitative PCR detection of extracellular HBV DNA, 100 μL culture supernatant was collected and processed in MagNA Pure 96 Nucleic Acid Purification System (Roche Applied Science) for viral DNA extraction. The extracted samples were subjected to HBV DNA quantification by qPCR. The effective compound concentration at which HBV replication is inhibited by 50% (EC50) was determined.
The Examples were tested in the above assays as described herein and found to have EC50<1 μM in HepG2.2.15 assay.
Work on `COC(=O)C1=C(CN2C3COCC2CC(O)C3)NC(c2nccs2)=N[C@H]1c1ccc(F)cc1Cl` (stereo partly drawn) [Example 9, (R)-4-(2-Chloro-4-fluoro-phenyl)-6-(7-hydroxy-3-oxa-9-aza-bicyclo[3.3.1]non-9-ylmethyl)-2-thiazol-2-yl-1,4-dihydro-pyrimidine-5-carboxylic acid methyl ester] yielded an EC50 of 0.014 µM.

Same assay, conditions: Hepatitis B virus, HepG2.2.15, Anti-HBV activity in HepG2.2.15 cells; read-out: EC50
`COC(=O)C1=C(CN2C3COCC2C(O)C3)NC(c2nccs2)=N[C@H]1c1ccc(F)cc1Cl` (mixture of isomers) [Example 49, Methyl (4R)-4-(2-chloro-4-fluoro-phenyl)-6-[(6-hydroxy-3-oxa-8-azabicyclo[3.2.1]octan-8-yl)methyl]-2-thiazol-2-yl-1,4-dihydropyrimidine-5-carboxylate] was tested, and the EC50 was 0.0172 µM. With `COC(=O)C1=C(CN2C3COCC2CC(C(=O)OC)C3)NC(c2nccs2)=N[C@H]1c1ccc(F)cc1Br` (stereo partly drawn) [Example 4, 9-[(R)-6-(2-Bromo-4-fluoro-phenyl)-5-methoxycarbonyl-2-thiazol-2-yl-3,6-dihydro-pyrimidin-4-ylmethyl]-3-oxa-9-aza-bicyclo[3.3.1]nonane-7-carboxylic acid methyl ester] the EC50 was 0.039 µM. `CNS(=O)(=O)N1CC2COCC(C1)N2CC1=C(C(=O)OC)[C@H](c2ccc(F)cc2Cl)N=C(c2nccs2)N1` [Example 16, (R)-4-(2-Chloro-4-fluoro-phenyl)-6-(7-methylsulfamoyl-3-oxa-7,9-diaza-bicyclo[3.3.1]non-9-ylmethyl)-2-thiazol-2-yl-1,4-dihydro-pyrimidine-5-carboxylic acid methyl ester] showed an EC50 of 0.015 µM. `CCOC(=O)C(C)(C)N1CC2COCC(C1)N2CC1=C(C(=O)OC)[C@H](c2ccc(F)cc2Cl)N=C(c2nccs2)N1` [Example 20, (R)-4-(2-Chloro-4-fluoro-phenyl)-6-[7-(1-ethoxycarbonyl-1-methyl-ethyl)-3-oxa-7,9-diaza-bicyclo[3.3.1]non-9-ylmethyl]-2-thiazol-2-yl-1,4-dihydro-pyrimidine-5-carboxylic acid methyl ester] showed an EC50 of 0.035 µM. With `COC(=O)C1=C(CN2C3COCC2CC(CC(=O)O)C3)NC(c2nccs2)=NC1c1ccc(F)c(F)c1` (stereo not shown) [Example 27, 6-(7-Carboxymethyl-3-oxa-9-aza-bicyclo[3.3.1]non-9-ylmethyl)-4-(3,4-difluoro-phenyl)-2-thiazol-2-yl-1,4-dihydro-pyrimidine-5-carboxylic acid methyl ester] the EC50 was 0.254 µM. In the case of `COC(=O)C1=C(CN2C3COCC2CC(C(O)C(=O)OC)C3)NC(c2nccs2)=N[C@H]1c1ccc(F)cc1Cl` (stereo partly drawn) [Example 30, (R)-4-(2-Chloro-4-fluoro-phenyl)-6-[7-(hydroxy-methoxycarbonyl-methyl)-3-oxa-9-aza-bicyclo[3.3.1]non-9-ylmethyl]-2-thiazol-2-yl-1,4-dihydro-pyrimidine-5-carboxylic acid methyl ester], the EC50 is reported as 0.011 µM. For `COC(=O)C1=C(CN2C3COCC2c2c(C)n[nH]c2C3)NC(c2nccs2)=N[C@H]1c1ccc(F)cc1Cl` (stereo partly drawn) [Example 32, (R)-4-(2-Chloro-4-fluoro-phenyl)-6-(3-methyl-10-oxa-4,5,12-triaza-tricyclo[6.3.1.0*2,6*]dodeca-2(6),3-dien-12-ylmethyl)-2-thiazol-2-yl-1,4-dihydro-pyrimidine-5-carboxylic acid methyl ester], the EC50 was 0.032 µM. With `COC(=O)C1=C(CN2[C@@H]3COC[C@H]2CC(OCC(=O)O)C3)NC(c2nccs2)=N[C@H]1c1ccc(F)c(F)c1` (stereo partly drawn) [Example 47, 2-[[(1R,5S)-9-[[(4S)-4-(3,4-difluorophenyl)-5-methoxycarbonyl-2-thiazol-2-yl-1,4-dihydropyrimidin-6-yl]methyl]-3-oxa-9-azabicyclo[3.3.1]nonan-7-yl]oxy]acetic acid] the EC50 was 0.295 µM. `COC(=O)C1=C(CN2C3COCC2C(F)C3)NC(c2nccs2)=N[C@H]1c1ccc(F)cc1Cl` (stereo partly drawn) [Example 51, Methyl (4R)-4-(2-chloro-4-fluoro-phenyl)-6-[(6-fluoro-3-oxa-8-azabicyclo[3.2.1]octan-8-yl)methyl]-2-thiazol-2-yl-1,4-dihydropyrimidine-5-carboxylate] showed an EC50 of 0.0149 µM.
